These results are taken from patent publication US20160002204A1 (Board of Regents, The University of Texas System, priority 2014, published 2016).

The target in test [1] is T1, GLS1 (purified recombinant human GAC) (Homo sapiens, UniProt O94925).
T1 sequence (O94925 55-598 isoform O94925-3 limits assumed): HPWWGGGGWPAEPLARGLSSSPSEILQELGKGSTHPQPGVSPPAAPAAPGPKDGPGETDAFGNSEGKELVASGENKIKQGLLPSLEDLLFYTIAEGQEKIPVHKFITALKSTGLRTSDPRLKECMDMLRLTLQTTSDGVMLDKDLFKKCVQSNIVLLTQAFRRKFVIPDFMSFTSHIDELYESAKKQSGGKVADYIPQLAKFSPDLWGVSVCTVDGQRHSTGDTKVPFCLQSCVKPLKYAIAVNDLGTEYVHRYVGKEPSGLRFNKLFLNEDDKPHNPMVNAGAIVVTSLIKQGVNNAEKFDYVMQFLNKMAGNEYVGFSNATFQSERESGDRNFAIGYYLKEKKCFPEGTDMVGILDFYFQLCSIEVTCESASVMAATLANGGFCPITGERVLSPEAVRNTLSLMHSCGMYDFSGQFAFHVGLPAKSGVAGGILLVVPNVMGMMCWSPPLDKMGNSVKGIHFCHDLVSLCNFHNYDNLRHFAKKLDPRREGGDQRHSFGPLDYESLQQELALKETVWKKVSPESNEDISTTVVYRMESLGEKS
Briefly: GLS1 enzymatic activity assay (dual-coupled, Amplex UltraRed/resorufin). Type of test: biochemical. Put shortly: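 In this coupled fluorometric format, phosphate-activated GAC (2 nM, 50 mM phosphate) is pre-exposed to compound for 10 min before 1 mM glutamine addition. Product is tracked as resorufin (530/590 nm) over time or at 20 min, and potency is derived by logistic fitting.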

A further test has as its system A549 cells. The test is described as follows: A549 proliferation (viability) assay, Cell Titer Fluor, 72 hours. Type of test: cell-based. Particulars: Homo sapiens. A digest of the protocol: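 A549 cells in RPMI 1640 with 10% dialyzed FBS were seeded at 1000 cells/well, grown 24 h, then exposed to compound (0.5% DMSO final) for 72 h at 37 °C, 5% CO2. Viability was read by Cell Titer Fluor fluorescence; EC50 from four-parameter logistic fit.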

Each structure is given as a SMILES string.

As a reminder, the IC50 is the concentration needed to halve the response being measured. The term EC50 denotes the concentration needed to bring the measured effect to its halfway point. Read a low EC50 as a more potent agent. With `CC(C)(C)OC(=O)NCc1cccc(CC(=O)Nc2ccn(CCCCc3nnc(NC(=O)Cc4ccccc4)s3)c(=O)n2)c1` [Example 85, tert-butyl N-[(3-{[(2-oxo-1-{4-[5-(2-phenylacetamido)-1,3,4-thiadiazol-2-yl]butyl}-1,2-dihydropyrimidin-4-yl)carbamoyl]methyl}phenyl)methyl] carbamate], in test [1], the IC50 was under 100 nM. The same compound showed a half-maximal effective concentration (EC50) with A549 cells of 100 to 500 nM.

With `O=C(CC1CCCCC1)Nc1ccn(CCC(F)Cn2cc(C(=O)NCc3cccc(C(F)(F)F)n3)nn2)c(=O)c1F` (stereo not drawn) [Example 262, 1-{4-[4-(2-cyclohexylacetamido)-3-fluoro-2-oxo-1,2-dihydropyridin-1-yl]-2-fluorobutyl}-N-{[6-(trifluoromethyl)pyridin-2-yl]methyl}-1H-1,2,3-triazole-4-carboxamide], the IC50 in test [1] was under 100 nM. In the test with A549 cells, this compound showed a concentration giving a half-maximal response (EC50) of under 100 nM.

For the compound `O=C(Cc1ccccc1)Nc1ccn(CCCCc2nnc(C(=O)NCc3ncccc3F)s2)c(=O)c1` [Example 453, N-[(3-fluoropyridin-2-yl)methyl]-5-{4-[2-oxo-4-(2-phenylacetamido)-1,2-dihydropyridin-1-yl]butyl}-1,3,4-thiadiazole-2-carboxamide], the half-maximal inhibitory concentration (IC50) in test [1] lay within 100 to 500 nM. This compound also yielded an EC50 in the test with A549 cells of 500 to 5000 nM.

Turning to `C[C@H](C(=O)Nc1ccn(CCC(F)Cn2cc(C(=O)NCc3cncc(C(F)(F)F)c3)nn2)c(=O)c1F)c1ccccc1` (stereo partly drawn) [Example 349], the IC50 in test [1] is under 100 nM. The same compound returned an EC50 in the test with A549 cells of under 100 nM.

Consider `O=C(Cc1ccccc1)Nc1nnc(CCCCn2ccc(NC(=O)[C@H](O)c3ccccc3)nc2=O)s1` [Example 84, (2R)-2-hydroxy-N-(2-oxo-1-{4-[5-(2-phenylacetamido)-1,3,4-thiadiazol-2-yl]butyl}-1,2-dihydropyrimidin-4-yl)-2-phenylacetamide], for which the IC50 in test [1] was under 100 nM. Besides, the concentration for a half-maximal effect (EC50) in the test on A549 cells is over 5000 nM.

For the compound `CNC(=O)c1cn(CC(F)CCn2ccc(NC(=O)C(=O)N3CCCCC3)c(F)c2=O)nn1` (stereo not drawn) [Example 429, 1-(2-fluoro-4-{3-fluoro-2-oxo-4-[2-oxo-2-(piperidin-1-yl)acetamido]-1,2-dihydropyridin-1-yl}butyl)-N-methyl-1H-1,2,3-triazole-4-carboxamide], the IC50 in test [1] is 500 to 5000 nM. The concentration for a half-maximal effect (EC50) in the test on A549 cells lay in the range of 500 to 5000 nM.

Take `O=C(Cc1cccc(OC(F)(F)F)c1)Nc1ccn(CCCCc2nnc(C(=O)NCc3cccc(OC(F)(F)F)c3)s2)c(=O)c1` [Example 439, 5-[4-(2-oxo-4-{2-[3-(trifluoromethoxy)phenyl]acetamido}-1,2-dihydropyridin-1-yl)butyl]-N-{[3-(trifluoromethoxy)phenyl]methyl}-1,3,4-thiadiazole-2-carboxamide]: the IC50 in test [1] is under 100 nM. In addition, in the test with A549 cells, the EC50 was under 100 nM.

With `O=C(CC1CCCCC1)Nc1ccn(CCC(F)Cn2cc(C(=O)NCc3ccc(C(F)(F)F)cn3)nn2)c(=O)c1F` (stereo not drawn) [Example 261, 1-{4-[4-(2-cyclohexylacetamido)-3-fluoro-2-oxo-1,2-dihydropyridin-1-yl]-2-fluorobutyl}-N-{[5-(trifluoromethyl)pyridin-2-yl]methyl}-1H-1,2,3-triazole-4-carboxamide], in test [1], the half-maximal inhibitory concentration (IC50) is under 100 nM. In the test on A549 cells, this compound registered a 50% effective concentration (EC50) of under 100 nM.

As for `O=C(Nc1ccn(CCCCc2nnc(C(=O)NCc3cc(C(F)(F)F)ccn3)s2)c(=O)c1F)OC1CCC1` [Example 469, cyclobutyl N-(3-fluoro-2-oxo-1-{4-[5-({[4-(trifluoromethyl)pyridin-2-yl]methyl}carbamoyl)-1,3,4-thiadiazol-2-yl]butyl}-1,2-dihydropyridin-4-yl)carbamate], the half-maximal inhibitory concentration (IC50) in test [1] is under 100 nM. In the test with A549 cells, the concentration for a half-maximal effect (EC50) was 100 to 500 nM.

In the case of `O=C(CC1CCCC1)Nc1ccn(CCC(F)Cn2cc(C(=O)NCc3ccc(C(F)(F)F)nc3)nn2)c(=O)c1F` (stereo not drawn) [Example 369, 1-{4-[4-(2-cyclopentylacetamido)-3-fluoro-2-oxo-1,2-dihydropyridin-1-yl]-2-fluorobutyl}-N-{[6-(trifluoromethyl)pyridin-3-yl]methyl}-1H-1,2,3-triazole-4-carboxamide], in test [1], the IC50 was under 100 nM. The compound also had a concentration for a half-maximal effect (EC50) in the test with A549 cells of under 100 nM.

For `O=C(Cc1ccccc1)Nc1nnc(CCCCn2cc3cc(Cc4ccccc4)[nH]c3nc2=O)s1` [Example 29, N-(5-(4-(6-benzyl-2-oxo-2,7-dihydro-3H-pyrrolo[2,3-d]pyrimidin-3-yl)butyl)-1,3,4-thiadiazol-2-yl)-7-phenylacetamide], the IC50 in test [1] was under 100 nM. Moreover, in the test on A549 cells, the EC50 was over 5000 nM.

`O=C(CC1CCCC1)Nc1ccn(CCCCc2nnc(NC(=O)NCc3cccc(C(F)(F)F)c3)s2)c(=O)c1F` [Example 133, 2-cyclopentyl-N-(3-fluoro-2-oxo-1-(4-(5-(3-(3-(trifluoromethyl)benzyl)ureido)-1,3,4-thiadiazol-2-yl)butyl)-1,2-dihydropyridin-4-yl)acetamide]: the half-maximal inhibitory concentration (IC50) in test [1] was under 100 nM. The EC50 with A549 cells was in the range of 100 to 500 nM.

For the compound `CCOC(=O)N1CCC(CC(=O)Nc2ccn(CCC(F)Cn3cc(C(=O)NCc4cccc(OC(F)(F)F)c4)nn3)c(=O)c2)CC1` (stereo not drawn) [Example 281, ethyl 4-{[(1-{3-fluoro-4-[4-({[3-(trifluoromethoxy)phenyl]methyl}carbamoyl)-1H-1,2,3-triazol-1-yl]butyl}-2-oxo-1,2-dihydropyridin-4-yl)carbamoyl]methyl}piperidine-1-carboxylate], the IC50 in test [1] was under 100 nM. This compound also returned an EC50 in the test on A549 cells of under 100 nM.

`O=C(NCc1cccc(OC(F)(F)F)c1)c1cn(CC(F)CCn2ccc(NC(=O)[C@H](O)c3ccccc3)c(F)c2=O)nn1` (stereo partly drawn) [Example 287, 1-(2-fluoro-4-{3-fluoro-4-[(2R)-2-hydroxy-2-phenylacetamido]-2-oxo-1,2-dihydropyridin-1-yl}butyl)-N-{[3-(trifluoromethoxy)phenyl]methyl}-1H-1,2,3-triazole-4-carboxamide]: in test [1], the 50% inhibitory concentration (IC50) is under 100 nM. This compound also yielded a concentration for a half-maximal effect (EC50) in the test on A549 cells of under 100 nM.

Consider `O=C(CC1CCN(C(=O)CC(F)(F)F)CC1)Nc1ccn(CCC(F)Cn2cc(C(=O)NCc3cccc(OC(F)(F)F)c3)nn2)c(=O)c1F` (stereo not drawn) [Example 301, 1-[2-fluoro-4-(3-fluoro-2-oxo-4-{2-[1-(3,3,3-trifluoropropanoyl)piperidin-4-yl]acetamido}-1,2-dihydropyridin-1-yl)butyl]-N-{[3-(trifluoromethoxy)phenyl]methyl}-1H-1,2,3-triazole-4-carboxamide], for which the IC50 in test [1] is under 100 nM. The same compound registered an EC50 in the test with A549 cells of under 100 nM.

`O=C(Cc1ccccc1F)Nc1ccn(CCC(F)Cn2cc(C(=O)NCc3cccc(OC(F)(F)F)c3)nn2)c(=O)c1F` (stereo not drawn) [Example 328, 1-(2-fluoro-4-{3-fluoro-4-[2-(2-fluorophenyl)acetamido]-2-oxo-1,2-dihydropyridin-1-yl}butyl)-N-{[3-(trifluoromethoxy)phenyl]methyl}-1H-1,2,3-triazole-4-carboxamide]: in test [1], the IC50 is under 100 nM. For the same compound, in the test with A549 cells, the concentration giving a half-maximal response (EC50) is under 100 nM.

Consider `O=C(Cc1ccccc1)Nc1ccn(CCCCc2nnc(NC(=O)Cc3ccccc3)s2)c(=O)n1` [Example 73, N-(2-oxo-1-{4-[5-(2-phenylacetamido)-1,3,4-thiadiazol-2-yl]butyl}-1,2-dihydropyrimidin-4-yl)-2-phenylacetamide], for which, in test [1], the half-inhibitory concentration (IC50) was under 100 nM. Besides, the concentration for a half-maximal effect (EC50) in the test on A549 cells lay within 500 to 5000 nM.

Turning to `CO[C@H](C(=O)Nc1ccn(CCC(F)Cn2cc(C(=O)NCc3ccc(C)nc3)nn2)c(=O)c1F)c1ccccc1` (stereo partly drawn) [Example 312, 1-(2-fluoro-4-{3-fluoro-4-[(2S)-2-methoxy-2-phenylacetamido]-2-oxo-1,2-dihydropyridin-1-yl}butyl)-N-[(6-methylpyridin-3-yl)methyl]-1H-1,2,3-triazole-4-carboxamide], the IC50 in test [1] was under 100 nM. The compound further registered an EC50 with A549 cells of 100 to 500 nM.

As to `O=C(CC1CCOC1)Nc1ccn(CCCCn2cc(C(=O)NCc3cccc(OC(F)(F)F)c3)nn2)c(=O)c1` (stereo not drawn) [Example 47, 1-(4-{2-oxo-4-[2-(oxolan-3-yl)acetamido]-1,2-dihydropyridin-1-yl}butyl)-N-{[3-(trifluoromethoxy)phenyl]methyl}-1H-1,2,3-triazole-4-carboxamide], the 50% inhibitory concentration (IC50) in test [1] was under 100 nM. Also, the concentration giving a half-maximal response (EC50) in the test on A549 cells fell in the range of 500 to 5000 nM.

For `O=C(Cc1ccccn1)Nc1nnc(CCCCn2ccc(NC(=O)CC3CCCC3)c(F)c2=O)s1` [Example 504, 2-cyclopentyl-N-[3-fluoro-2-oxo-1-(4-{5-[2-(pyridin-2-yl)acetamido]-1,3,4-thiadiazol-2-yl}butyl)-1,2-dihydropyridin-4-yl]acetamide], the IC50 in test [1] is under 100 nM. This compound also yielded a concentration giving a half-maximal response (EC50) in the test on A549 cells of 100 to 500 nM.

For `Cc1ccc(CNC(=O)c2cn(CC(F)CCn3ccc(NC(=O)CC4CCCOC4)cc3=O)nn2)cn1` (stereo not drawn) [Example 196, 1-(2-fluoro-4-{4-[2-(oxan-3-yl)acetamido]-2-oxo-1,2-dihydropyridin-1-yl}butyl)-N-[(6-methylpyridin-3-yl)methyl]-1H-1,2,3-triazole-4-carboxamide], the IC50 in test [1] was under 100 nM. Also, the concentration giving a half-maximal response (EC50) in the test with A549 cells is 500 to 5000 nM.
